Values quoted from earlier work as cited in US20150196488A1, “Topical Foam Composition” (priority 2009, published 2015).

Conditions: alcohol, ethyl acetate, chloroform and toluene

## CO[C@H]1/C=C/O[C@@]2(C)Oc3c(C)c(O)c4c(O)c(c5c(nc6cc(C)ccn65)c4c3C2=O)NC(=O)/C(C)=C\C=C\[C@H](C)[C@H](O)[C@@H](C)[C@@H](O)[C@@H](C)[C@H](OC(C)=O)[C@@H]1C [Rifaximin, (2S,16Z,18E,20S,21S,22R,23R,24R,25S,26S,27S,28E)-5,6,21,23,25-pentahydroxy-27-methoxy-2,4,11,16,20,22,24,26-octamethyl-2,7-(epoxypentadeca-[1,11,13]trienimino)benzofuro[4,5-e]pyrido[1,2-a]-benzimida-zole-1,15(2H)-dione,25-acetate]
  solubility in organic solvents: soluble
